“And” between values parts separate entries of the source, which are not always exact repeats. Equal entries are not always repeated. Where two headings read alike, the source gives them in different places.
Columns and labels:
Conditions in all cases: COS-7 membranes
α1a-AR = biological target: T1, α1a-AR (Homo sapiens, UniProt P35348); test: α1-Adrenergic Receptor Binding Assay, 125I-HEAT radio-ligand binding, transfected COS-7 cell membranes, α1a subtype
T1 construct: expressed in transfected cells; host or cells: COS-7 cells (African Green monkey kidney), membranes
T1 sequence (P35348 1-466): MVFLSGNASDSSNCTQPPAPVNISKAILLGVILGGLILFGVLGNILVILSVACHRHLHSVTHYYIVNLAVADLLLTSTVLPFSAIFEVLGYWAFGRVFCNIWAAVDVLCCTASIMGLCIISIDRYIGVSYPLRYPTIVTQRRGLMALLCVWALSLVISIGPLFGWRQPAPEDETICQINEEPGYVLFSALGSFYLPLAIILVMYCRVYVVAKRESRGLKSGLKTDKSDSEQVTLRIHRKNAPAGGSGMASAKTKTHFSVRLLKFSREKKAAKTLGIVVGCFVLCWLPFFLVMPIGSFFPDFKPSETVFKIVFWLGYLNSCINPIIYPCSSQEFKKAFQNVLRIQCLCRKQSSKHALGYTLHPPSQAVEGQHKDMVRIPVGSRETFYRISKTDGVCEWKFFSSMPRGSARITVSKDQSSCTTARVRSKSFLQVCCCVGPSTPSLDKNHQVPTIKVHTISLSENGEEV
Experimental: (§1) Membranes were prepared from COS-7 cells (African Green monkey kidney SV40-transformed cells) that had been transfected with one of the three α1-AR subtypes by the following method: COS cells from ten 100 mm tissue culture plates were scraped into a 5 ml volume of TE (a mixture of 50 mM tris(hydroxymethyl)aminomethane hydrochloride (Tris-HCl) and 5 mM ethylenediaminetetraacetic acid (EDTA) at pH 7.4). The cell suspension was disrupted with a Brinkman Polytron (at a setting of 8) for 10 sec. The disrupted cells were centrifuged at 1000×g for 10 min at 4° C. Supernatants were centrifuged at 34,500×g for 20 min at 4° C. The membrane pellets were suspended in a 2 ml volume of TNE (a mixture of 50 mM Tris-HCl, 5 mM EDTA and 150 mM NaCl at pH7.4). An aliquot of the membrane suspension was stored at −70° C. until use. The protein concentration was determined using a BioRad “DC” protein assay kit following membrane solubilization with Triton X-100.
(§2) Triplicate determinations of radio-ligand binding in the presence of increasing concentrations of testing compound were made. The reagents were added to 96-well polypropylene plate wells. Each assay well contained 140 μL TNE, 25 μL 125′-2-(β-4-hydroxyphenyl)ethylaminomethyltetralone (^125I-HEAT) (specific activity 2200 Ci/mmol, Dupont-New England Nuclear, […] final), 10 μL testing compound dissolved in dimethyl sulfoxide (DMSO) ([…] to 10 μM in half-log increments, final), and 25 μL appropriate α1-AR membrane subtype suspension in TNE (0.5 ng/μL for the α1a and α1b subtypes and 13 ng/μL for the α1d subtype). The plate was incubated at rt for 1 hr. The contents of the wells were filtered through a glass filter (type C) (GF/C) membrane Unifilter plate (Packard Instruments) using the Packard Filtermate cell harvester. The filter plates were dried in a vacuum oven for 30 min at 40° C. 25 μL Microscint 20 liquid scintillation fluid (Packard Instuments) was added to each well. The radioactive content was analyzed in the TopCount microplate scintillation counter (Packard Instruments).
(§3) The Ki values (in nM) shown in Table 1 were determined using GraphPad Prism software.

α1d-AR = biological target: T2, α1d-AR (Homo sapiens, UniProt P25100); test: α1-Adrenergic Receptor Binding Assay, 125I-HEAT radio-ligand binding, transfected COS-7 cell membranes, α1d subtype
T2 construct: expressed in transfected cells; host or cells: COS-7 cells (African Green monkey kidney), membranes
T2 sequence (P25100 1-572): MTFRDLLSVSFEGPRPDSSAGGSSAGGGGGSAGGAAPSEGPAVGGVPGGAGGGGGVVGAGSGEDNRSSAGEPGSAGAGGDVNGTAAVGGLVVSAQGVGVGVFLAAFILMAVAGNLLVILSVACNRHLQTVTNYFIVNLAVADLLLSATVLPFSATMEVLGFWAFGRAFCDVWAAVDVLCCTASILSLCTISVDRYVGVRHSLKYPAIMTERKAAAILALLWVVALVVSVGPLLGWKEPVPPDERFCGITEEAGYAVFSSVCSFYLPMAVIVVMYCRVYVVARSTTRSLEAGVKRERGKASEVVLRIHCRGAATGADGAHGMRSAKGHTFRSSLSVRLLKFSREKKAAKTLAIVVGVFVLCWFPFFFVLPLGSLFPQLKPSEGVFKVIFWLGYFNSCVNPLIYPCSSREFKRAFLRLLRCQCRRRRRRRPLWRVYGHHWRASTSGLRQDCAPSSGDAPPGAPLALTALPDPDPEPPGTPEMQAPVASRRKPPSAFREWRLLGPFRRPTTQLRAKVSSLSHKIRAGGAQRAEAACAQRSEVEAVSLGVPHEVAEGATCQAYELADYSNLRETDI
Experimental: as §1, §2, §3

α1b-AR = biological target: T3, α1b-AR (Homo sapiens, UniProt P35368); test: α1-Adrenergic Receptor Binding Assay, 125I-HEAT radio-ligand binding, transfected COS-7 cell membranes, α1b subtype
T3 construct: expressed in transfected cells; host or cells: COS-7 cells (African Green monkey kidney), membranes
T3 sequence (P35368 1-520): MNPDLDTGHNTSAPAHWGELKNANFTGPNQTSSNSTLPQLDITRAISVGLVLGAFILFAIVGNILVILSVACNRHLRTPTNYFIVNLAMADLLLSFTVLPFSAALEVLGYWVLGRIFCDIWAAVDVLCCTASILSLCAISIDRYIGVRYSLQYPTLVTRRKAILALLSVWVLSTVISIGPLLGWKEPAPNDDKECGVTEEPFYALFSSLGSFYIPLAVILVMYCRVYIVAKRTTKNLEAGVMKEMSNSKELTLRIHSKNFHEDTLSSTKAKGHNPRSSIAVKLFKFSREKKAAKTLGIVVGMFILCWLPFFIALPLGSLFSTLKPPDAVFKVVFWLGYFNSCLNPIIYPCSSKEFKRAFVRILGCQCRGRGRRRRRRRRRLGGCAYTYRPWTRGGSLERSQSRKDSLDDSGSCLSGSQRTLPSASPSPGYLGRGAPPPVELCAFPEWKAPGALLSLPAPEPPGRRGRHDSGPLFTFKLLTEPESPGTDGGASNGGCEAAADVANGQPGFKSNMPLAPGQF
Experimental: as §1, §2, §3

[1] = average value, read-out: Alpha 1 Ki α1a (1) Average Value
[2] = individual values, read-out: Alpha 1 Ki α1a (2) Individual Values
[3] = average value, read-out: Alpha 1 Ki α1d (1) Average Value
[4] = individual values, read-out: Alpha 1 Ki α1d (2) Individual Values
[5] = average value, read-out: Alpha 1 Ki α1b (1) Average Value
[6] = individual values, read-out: Alpha 1 Ki α1b (2) Individual Values

Compound	Ki (α1a-AR; [1])	Ki (α1a-AR; [2])	Ki (α1d-AR; [3])	Ki (α1d-AR; [4])	Ki (α1b-AR; [5])	Ki (α1b-AR; [6])
CC(C)Oc1ccccc1N1CCN(CC2CC(CN3CCCCC3=O)=NO2)CC1 (single isomer, unassigned) [Compound 2, 1-{(5R*)-5-[4-(2-isopropoxy-phenyl)-piperazin-1-ylmethyl]-4,5-dihydro-isoxazol-3-ylmethyl}-piperidin-2-one]	0.79 nM	1 nM and 0.7 nM and 0.86 nM and 0.6 nM	4.5 nM	5.2 nM and 4.7 nM and 5.8 nM and 2.3 nM	53.5 nM	79 nM and 41 nM and 56 nM and 38 nM
CC(C)Oc1ccccc1N1CCN(CC2CC(CN3CCCCC3=O)=NO2)CC1 (single isomer, unassigned) [Compound 3, 1-{(5S*)-5-[4-(2-isopropoxy-phenyl)-piperazin-1-ylmethyl]-4,5-dihydro-isoxazol-3-ylmethyl}-piperidin-2-one]	2.5 nM	2.5 nM	20 nM	20 nM	215 nM	215 nM
CC(C)Oc1ccccc1N1CCN(CC2CC(C(=O)N3CCc4ccccc43)=NO2)CC1 (single isomer, unassigned) [Compound 36, (2,3-dihydro-indol-1-yl)-{(5S*)-5-[4-(2-isopropoxy-phenyl)-piperazin-1-ylmethyl]-4,5-dihydro-isoxazol-3-yl}-methanone]	38.2 nM		90.2 nM		191 nM	
CC(C)Oc1ccccc1N1CCN(CC2CC(C(=O)N3CCc4ccccc43)=NO2)CC1 (single isomer, unassigned) [Compound 37, (2,3-dihydro-indol-1-yl)-{(5R*)-5-[4-(2-isopropoxy-phenyl)-piperazin-1-ylmethyl]-4,5-dihydro-isoxazol-3-yl}-methanone]	0.54 nM	0.54 nM	0.28 nM	0.28 nM	37 nM	37 nM
CC(C)Oc1ccccc1N1CCN(CC2CC(C(=O)N3CCC(Oc4ccccc4)CC3)=NO2)CC1 (single isomer, unassigned) [Compound 38, {(5R*)-5-[4-(2-isopropoxy-phenyl)-piperazin-1-ylmethyl]-4,5-dihydro-isoxazol-3-yl}-(4-phenoxy-piperidin-1-yl)-methanone]	132 nM	132 nM	55 nM	55 nM	639 nM	639 nM
CC(C)Oc1ccccc1N1CCN(CC2CC(C(=O)N3CCC(Oc4ccccc4)CC3)=NO2)CC1 (single isomer, unassigned) [Compound 39, {(5S*)-5-[4-(2-isopropoxy-phenyl)-piperazin-1-ylmethyl]-4,5-dihydro-isoxazol-3-yl}-(4-phenoxy-piperidin-1-yl)-methanone]	1.6 nM	1.4 nM and 1.8 nM	8.55 nM	10.4 nM and 6.7 nM	217 nM	223 nM and 210 nM
CC(C)Oc1ccccc1N1CCN(CC2CC(C(=O)N3CCC(C(=O)c4ccc(F)cc4)CC3)=NO2)CC1 (single isomer, unassigned) [Compound 40, [4-(4-fluoro-benzoyl)-piperidin-1-yl]-{(5S*)-5-[4-(2-isopropoxy-phenyl)-piperazin-1-ylmethyl]-4,5-dihydro-isoxazol-3-yl}-methanone]	6.44 nM	6.44 nM	4.61 nM	4.61 nM	531 nM	531 nM
CC(C)Oc1ccccc1N1CCN(CC2CC(C(=O)N3CCC(C(=O)c4ccc(F)cc4)CC3)=NO2)CC1 (single isomer, unassigned) [Compound 41, [4-(4-fluoro-benzoyl)-piperidin-1-yl]-{(5R*)-5-[4-(2-isopropoxy-phenyl)-piperazin-1-ylmethyl]-4,5-dihydro-isoxazol-3-yl}-methanone]	240 nM	240 nM	58.1 nM	58.1 nM	1690 nM	1690 nM
CC(C)Oc1ccccc1N1CCN(CC2CC(C(=O)N3CC(C)(C)c4cc(Br)ccc43)=NO2)CC1 (single isomer, unassigned) [Compound 42, (5-bromo-3,3-dimethyl-2,3-dihydro-indol-1-yl)-{(5R*)-5-[4-(2-isopropoxy-phenyl)-piperazin-1-ylmethyl]-4,5-dihydro-isoxazol-3-yl}-methanone]	5.87 nM	5.87 nM	0.44 nM	0.44 nM	289 nM	289 nM
CC(C)Oc1ccccc1N1CCN(CC2CC(C(=O)N3CC(C)(C)c4cc(Br)ccc43)=NO2)CC1 (single isomer, unassigned) [Compound 43, (5-bromo-3,3-dimethyl-2,3-dihydro-indol-1-yl)-{(5S*)-5-[4-(2-isopropoxy-phenyl)-piperazin-1-ylmethyl]-4,5-dihydro-isoxazol-3-yl}-methanone]	317 nM	317 nM	104 nM	104 nM	1080 nM	1080 nM
CC(C)Oc1ccccc1N1CCN(CC2CC(C(=O)N3CCOCC3)=NO2)CC1 (single isomer, unassigned) [Compound 44, {(5S*)-5-[4-(2-isopropoxy-phenyl)-piperazin-1-ylmethyl]-4,5-dihydro-isoxazol-3-yl}-morpholin-4-yl-methanone]	2.32 nM	2.32 nM	19.9 nM	19.9 nM	521 nM	521 nM
CC(C)Oc1ccccc1N1CCN(CC2CC(C(=O)N3CCOCC3)=NO2)CC1 (single isomer, unassigned) [Compound 45, {(5R*)-5-[4-(2-Isopropoxy-phenyl)-piperazin-1-ylmethyl]-4,5-dihydro-isoxazol-3-yl}-morpholin-4-yl-methanone]	73.1 nM	73.1 nM	297 nM	297 nM	1060 nM	1060 nM

— patent US20080221116A1, “ISOXAZOLINE ALPHA 1a/1d ADRENORECEPTOR ANTAGONISTS” (priority 2006, published 2008)
